Data published in ChEMBL document CHEMBL3627674, “Discovery of wrightiadione as a novel template for the TrkA kinase inhibitors” (Bioorg Med Chem Lett, 2015).

What follows are molecules tested against High affinity nerve growth factor receptor (Homo sapiens, UniProt P04629) (assay: Inhibition of TrkA (unknown origin) by radiometric analysis in presence of [gamma-33P]-ATP).
Chain of High affinity nerve growth factor receptor (P04629 whole entry): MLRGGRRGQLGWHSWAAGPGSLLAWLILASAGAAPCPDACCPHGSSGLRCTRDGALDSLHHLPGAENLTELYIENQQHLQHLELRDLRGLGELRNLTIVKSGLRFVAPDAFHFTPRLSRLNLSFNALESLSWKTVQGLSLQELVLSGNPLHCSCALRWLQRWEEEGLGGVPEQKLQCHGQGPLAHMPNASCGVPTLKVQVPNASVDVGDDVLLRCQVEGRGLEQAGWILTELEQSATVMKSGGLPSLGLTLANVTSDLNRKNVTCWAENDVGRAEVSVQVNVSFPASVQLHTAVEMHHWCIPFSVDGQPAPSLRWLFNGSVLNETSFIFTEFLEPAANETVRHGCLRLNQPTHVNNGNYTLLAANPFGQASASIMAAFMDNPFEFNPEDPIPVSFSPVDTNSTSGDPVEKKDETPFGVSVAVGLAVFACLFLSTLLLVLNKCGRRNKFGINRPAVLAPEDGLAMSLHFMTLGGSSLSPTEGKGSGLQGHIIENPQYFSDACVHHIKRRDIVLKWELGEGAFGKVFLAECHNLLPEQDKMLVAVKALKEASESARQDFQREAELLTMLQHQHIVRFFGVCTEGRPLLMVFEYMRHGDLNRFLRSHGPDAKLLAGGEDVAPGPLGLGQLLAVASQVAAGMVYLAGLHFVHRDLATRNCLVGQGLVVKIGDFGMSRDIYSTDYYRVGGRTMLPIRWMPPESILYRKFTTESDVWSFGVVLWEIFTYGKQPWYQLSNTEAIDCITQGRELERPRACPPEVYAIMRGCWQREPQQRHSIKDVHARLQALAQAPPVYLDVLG

Going from `Cn1c2c(c(=O)c3ccccc31)-c1cccc(O)c1C2=O` to `Cc1cccc2c1C(=O)c1c-2c(=O)c2ccccc2n1C`, the IC50 falls from 141 µM to 73.3 µM (1.9-fold).

Going from `Cn1c2c(c(=O)c3ccccc31)-c1ccccc1C2=O` to `Cn1c2c(c(=O)c3ccc(Cl)cc31)-c1ccccc1C2=O`, the IC50 rises from 28.9 µM to 88.5 µM (3.1-fold).

First: CCOC(=O)n1c2c(c(=O)c3ccccc31)-c1ccccc1C2=O
Second: O=C1c2ccccc2-c2c1n(Cc1ccccc1)c1ccccc1c2=O
The IC50 of the first is 1.6-fold higher: 16.5 µM for the first, 10.3 µM for the second.

First: COc1ccc2c(c1)C(=O)c1c-2c(=O)c2ccccc2n1C
Second: COc1ccc2c(c1)-c1c(n(C)c3ccccc3c1=O)C2=O
The IC50 of the first is 2.2-fold lower: 6.6 µM for the first, 14.4 µM for the second. The first is the more potent here.

Going from `COc1ccc2c(c1)C(=O)c1c-2c(=O)c2ccccc2n1Cc1ccccc1` to `Cc1ccc2c(c1)C(=O)c1c-2c(=O)c2ccccc2n1C`, the IC50 rises from 16.4 µM to 47.2 µM (2.9-fold).

First: COc1cccc2c1-c1c(n(C)c3ccccc3c1=O)C2=O
Second: Cn1c2c(c(=O)c3ccc(C(F)(F)F)cc31)-c1ccccc1C2=O
The IC50 of the first is 1.8-fold higher: 209 µM for the first, 117 µM for the second.

Each molecule was assayed against Serine/threonine-protein kinase PLK3 (Homo sapiens, UniProt Q9H4B4) (assay: Inhibition of PLK3 (unknown origin) by radiometric analysis in presence of [gamma-33P]-ATP).
Chain of Serine/threonine-protein kinase PLK3 (Q9H4B4 whole entry): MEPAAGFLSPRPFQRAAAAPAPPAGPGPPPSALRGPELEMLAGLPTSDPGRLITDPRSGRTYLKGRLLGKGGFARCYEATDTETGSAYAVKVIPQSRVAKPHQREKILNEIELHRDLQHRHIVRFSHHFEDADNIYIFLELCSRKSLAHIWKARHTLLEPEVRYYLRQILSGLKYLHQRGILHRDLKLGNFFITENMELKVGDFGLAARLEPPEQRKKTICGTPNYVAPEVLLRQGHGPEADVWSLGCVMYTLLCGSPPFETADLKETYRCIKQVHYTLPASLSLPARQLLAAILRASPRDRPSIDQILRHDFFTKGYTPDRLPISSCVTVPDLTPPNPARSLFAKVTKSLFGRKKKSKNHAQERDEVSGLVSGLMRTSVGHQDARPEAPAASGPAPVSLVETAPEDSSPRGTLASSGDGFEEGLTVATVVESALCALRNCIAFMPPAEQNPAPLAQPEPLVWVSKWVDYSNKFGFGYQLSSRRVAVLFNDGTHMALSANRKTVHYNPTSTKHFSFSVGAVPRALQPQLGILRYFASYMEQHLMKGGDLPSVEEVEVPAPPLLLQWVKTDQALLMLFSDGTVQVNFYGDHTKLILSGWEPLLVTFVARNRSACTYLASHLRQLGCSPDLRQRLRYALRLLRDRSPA

In the case of `Cn1c2c(c(=O)c3ccccc31)-c1ccccc1C2=O`, the IC50 is reported as > 200 µM.
